Data published in US9708368B2, “Linear peptide antibiotics” (priority 2012, dated 2017).
Values after ≈ are worked out from the molar mass of the structure shown. Numbered stars: 1 amine (or outer) side, 2 acyl side, 3 side chain; on linkers, the order of the positions; unused ones are H or OH. Square brackets hold non-standard residues; d marks the D form. Peptide text beside a SMILES is read from it. * marks the point of attachment. ξ: configuration not given here. boroAla((+)-pinanediol) = C[C@H](N*)B1O[C@@H]2C[C@@H]3C[C@@H](C3(C)C)[C@]2(C)O1; Biphenylcarbonyl(4'-Bu) = CCCCc1ccc(-c2ccc(C(=O)*)cc2)cc1; X1 = C[C@H](N*)B1OC2C[C@@H]3C[C@@H](C3(C)C)[C@]2(C)O1; Benzoyl(4-(4-Cl-Ph)) = O=C(c1ccc(-c2ccc(Cl)cc2)cc1)*; ξ3Amino2oxobutanoyl = CC(N[*:1])C(=O)C(=O)[*:2]; Benzoyl(4-hexyl) = CCCCCCc1ccc(C(=O)*)cc1; Lys(Me3) = C[N+](C)(C)CCCC[C@H](N)C(=O)O; NMeY = CN[C@@H](Cc1ccc(O)cc1)C(=O)O; NMeThr(3ξ) = CN[C@H](C(=O)O)C(C)O; X9 = COC(=O)CN1C[C@@H](N*)C1=O; Thr(3ξ) = CC(O)[C@H](N)C(=O)O; NMeK = CN[C@@H](CCCCN)C(=O)O; Tle = CC(C)(C)[C@H](N)C(=O)O; boroAla = C[C@H](N*)B(O)O; Orn = NCCC[C@H](N)C(=O)O; Dab = NCC[C@H](N)C(=O)O; Dap = NC[C@H](N)C(=O)O; boroGly = OB(O)CN*; βAla = NCCC(=O)O

What was measured:
[1] = system: methicillin resistant Staphylococcus aureus (MRSA) strain USA300 (NRS384); settings: Method B, 35° C., 22 hours
[2] = system: Escherichia coli strain MC4100 IMP-4213, which harbors an LptD mutation; settings: Method B; E. coli MC4100 IMP-4213 (LptD mutation); 35° C., 22 hours
Protocol: In vitro antimicrobial activity of each compound was determined by measuring minimal inhibitor concentrations (MICs) using the broth micro-dilution technique as approved by the Clinical and Laboratory Standards Institute (CLSI). […] Bacterial inocula were prepared by scraping cells into 1 mL of testing media (cation adjusted Mueller Hinton Broth supplemented with 0.002% v/v Tween-80) and diluting to a final OD600 nm of 0.01.
Test compounds were prepared in DMSO at a concentration of 10 mg/ml. […] Bacterial inocula were added to the two fold serial dilutions of test compounds to a final density of OD OD600 nm of 0.0005 and incubated stationarily at 35° C. for 22 hours, after which the plates were examined visually.

[3] = target: E. coli SPase (Escherichia coli, UniProt P00803); assay: Biochemical SPase activity assay (fluorogenic peptide substrate), E. coli enzyme
Protocol: Reactions were initiated by the addition of substrate to a final concentration of 20 μM. Reaction progress was monitored by measuring the increase in fluorescence signal (excitation at 314 nm, emission at 416 nm) using a SpectraMax M2 fluorescence microplate reader. […] Three-folder serial dilutions of test compounds, starting at 10 μM, were prepared in enzyme mix solution and incubated at room temperature for 10 minutes. Following this incubation, fluorogenic substrate was added to a final concentration of 20 μM and the increase in fluorescence, corresponding to substrate cleavage, was monitored continuously at room temperature for 1 hour. Initial reaction rates were calculated based on the rate of increase in fluorescence during the reaction. Reaction rates were plotted as a function of compound concentration, and IC50 values are determined nonlinear regression analysis (SoftMaxPro 5.4, Molecular Devices™) of the sigmoidal dose-response curve.

[4] = target: S. aureus SPase (Staphylococcus aureus, UniProt P0A070); assay: biochemical
S. aureus SPase, sequence (P0A070 whole entry): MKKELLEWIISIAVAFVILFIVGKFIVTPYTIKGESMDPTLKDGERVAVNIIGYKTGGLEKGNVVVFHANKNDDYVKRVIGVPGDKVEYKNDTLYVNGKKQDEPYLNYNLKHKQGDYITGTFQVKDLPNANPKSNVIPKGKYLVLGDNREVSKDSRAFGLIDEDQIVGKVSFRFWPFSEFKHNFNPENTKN

E. coli SPase, sequence (P00803 whole entry): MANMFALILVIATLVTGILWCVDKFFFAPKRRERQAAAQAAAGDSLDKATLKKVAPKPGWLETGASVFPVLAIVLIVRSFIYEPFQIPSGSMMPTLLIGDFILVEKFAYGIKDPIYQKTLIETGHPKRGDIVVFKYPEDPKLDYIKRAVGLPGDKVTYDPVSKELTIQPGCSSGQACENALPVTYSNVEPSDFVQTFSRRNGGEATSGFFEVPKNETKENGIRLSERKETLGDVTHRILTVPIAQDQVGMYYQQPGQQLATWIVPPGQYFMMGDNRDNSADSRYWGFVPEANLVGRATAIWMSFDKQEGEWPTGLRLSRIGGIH

Row | SMILES | MIC (μg/mL) S. aureus [1] [µg/mL] | MIC (μg/mL) E. coli [2] [µg/mL] | IC50 [3] [nM] | IC50 [4] [nM]
1 | CCCCc1ccc(-c2ccc(CNCCC(=O)N[C@H](C(=O)N[C@@H](C)C(=O)N[C@@H](CCCCN)C(=O)N[C@@H](C)B3O[C@@H]4C[C@@H]5C[C@@H](C5(C)C)[C@]4(C)O3)[C@@H](C)O)cc2)cc1 [Compound 270] | 0.5 (≈ 0.612 µM) | 8 (≈ 9.79 µM) | 650 | 120
2 | CCCCc1ccc(-c2ccc(C(=O)NCCC(=O)N[C@@H](CCCCN)C(=O)N[C@H](C(=O)N[C@@H](C)C(=O)N[C@@H](CCCCN)C(=O)N[C@@H](C)B3OC4C[C@@H]5C[C@@H](C5(C)C)[C@]4(C)O3)[C@@H](C)O)cc2)cc1 (stereo partly drawn) [Compound 193] ({Biphenylcarbonyl(4'-Bu)-βAla}-KTAK-X1) | 0.16 (≈ 0.167 µM) | 5 (≈ 5.21 µM) | 15 | 3
3 | CCCCc1ccc(-c2ccc(C(=O)NCCC(=O)N[C@@H](CCCCN)C(=O)N[C@@H](Cc3ccc(O)cc3)C(=O)N[C@@H](C)C(=O)N[C@@H](CCCCN)C(=O)N[C@@H](C)B(O)O)cc2)cc1 [Compound 215] ({Biphenylcarbonyl(4'-Bu)-βAla}-KYAK-boroAla) | 0.5 (≈ 0.564 µM) | 4 (≈ 4.51 µM) | 77 | 17
4 | CCCCc1ccc(-c2ccc(C(=O)N[C@@H](CCN)C(=O)N[C@H](C(=O)N[C@@H](C)C(=O)N[C@@H](CCCCN)C(=O)N[C@@H](C)B3OC4C[C@@H]5C[C@@H](C5(C)C)[C@]4(C)O3)[C@@H](C)O)cn2)cc1 (stereo partly drawn) [Compound 234] | 0.4 (≈ 0.465 µM) | 0.5 (≈ 0.581 µM) | 8.3 | 53
5 | CCCCc1ccc(-c2ccc(C(=O)N[C@@H](CCCCN)C(=O)N[C@@H](CCCCN)C(=O)N[C@@H](C)C(=O)N[C@@H](CC(C)C)C(=O)N[C@@H](C)B3OC4C[C@@H]5C[C@@H](C5(C)C)[C@]4(C)O3)cc2)cc1 (stereo partly drawn) [Compound 146] ({Biphenylcarbonyl(4'-Bu)}-KKAL-X1) | 0.4 (≈ 0.444 µM) | 0.25 (≈ 0.278 µM) | 12 | 160
6 | CCCCc1ccc(-c2ccc(C(=O)N[C@@H](CCN)C(=O)N[C@H](C(=O)N[C@@H](C)C(=O)N[C@@H](CCCCN)C(=O)N[C@@H](C)B(O)O)[C@@H](C)O)cc2)cc1 [Compound 178] ({Biphenylcarbonyl(4'-Bu)}-[Dab]TAK-boroAla) | 0.063 (≈ 0.0868 µM) | 0.25 (≈ 0.344 µM) | 3.1 | 58
7 | CCCCc1ccc(-c2ccc(C(=O)N[C@@H](CCCC[N+](C)(C)C)C(=O)N[C@H](C(=O)N[C@@H](C)C(=O)N[C@@H](CCCCN)C(=O)N[C@@H](C)B(O)O)[C@@H](C)O)cc2)cc1 [Compound 159] ({Biphenylcarbonyl(4'-Bu)}-[Lys(Me3)]TAK-boroAla) | 1 | 16 | 240 | 86
8 | CCCCc1ccc(-c2ccc(C(=O)N[C@H](CO)C(=O)N[C@H](C)C(=O)NCC(=O)N(C)[C@@H](CCCCN)C(=O)N[C@@H](C)C(=O)N[C@@H](CC(N)=O)C(=O)N[C@@H](C)B3OC4C[C@@H]5C[C@@H](C5(C)C)[C@]4(C)O3)cc2)cc1 (stereo partly drawn) [Compound 228] ({Biphenylcarbonyl(4'-Bu)}-[dS][dA]G[NMeK]AN-X1) | 5.7 (≈ 5.69 µM) | 2.8 (≈ 2.79 µM) | 360 | 270
9 | CCCCc1ccc(-c2ccc(C(=O)N[C@@H](CCCCN)C(=O)N(C)[C@@H](Cc3ccc(O)cc3)C(=O)N[C@@H](C)C(=O)N[C@@H](CCCCN)C(=O)N[C@@H](C)B(O)O)cc2)cc1 [Compound 157] ({Biphenylcarbonyl(4'-Bu)}-K[NMeY]AK-boroAla) | 2 (≈ 2.41 µM) | 4 (≈ 4.82 µM) | 130 | 1000
10 | CC(C)C[C@H](NC(=O)[C@H](C)NC(=O)[C@H](CCN)NC(=O)[C@H](CCN)NC(=O)c1ccc(-c2ccc(Cl)cc2)cc1)C(=O)N[C@@H](C)B1OC2C[C@@H]3C[C@@H](C3(C)C)[C@]2(C)O1 (stereo partly drawn) [Compound 173] ({Benzoyl(4-(4-Cl-Ph))}-[Dab][Dab]AL-X1) | 2 (≈ 2.43 µM) | 2 (≈ 2.43 µM) | 69 | 550
11 | CCCCc1ccc(-c2ccc(C(=O)NCCCC[C@H](NC(=O)[C@@H](N)CCN)C(=O)N[C@@H](C)C(=O)N[C@@H](CCCCN)C(=O)N[C@@H](C)B3OC4C[C@@H]5C[C@@H](C5(C)C)[C@]4(C)O3)cc2)cc1 (stereo partly drawn) [Compound 278] (H-[Dab]K(Biphenylcarbonyl(4'-Bu))AK-X1) | 4 (≈ 4.51 µM) | 16 (≈ 18 µM) | 800 | 2300
12 | CC(C)C[C@H](NC(=O)[C@H](C)NC(=O)[C@H](CCCCN)NC(=O)[C@H](CCCCN)NC(=O)c1ccc(-c2ccc(Cl)cc2)cc1)C(=O)N[C@@H](C)B1OC2C[C@@H]3C[C@@H](C3(C)C)[C@]2(C)O1 (stereo partly drawn) [Compound 145] ({Benzoyl(4-(4-Cl-Ph))}-KKAL-X1) | 3.2 (≈ 3.64 µM) | 5 (≈ 5.69 µM) | 39 | 240
13 | CCCCc1ccc(-c2ccc(C(=O)NCCC(=O)N[C@@H](CCCCN)C(=O)N[C@H](C(=O)N[C@@H](C)C(=O)N[C@@H](CC(C)C)C(=O)N[C@@H](C)B3OC4C[C@@H]5C[C@@H](C5(C)C)[C@]4(C)O3)[C@@H](C)O)cc2)cc1 (stereo partly drawn) [Compound 198] ({Biphenylcarbonyl(4'-Bu)-βAla}-KTAL-X1) | 0.5 (≈ 0.53 µM) | 5 (≈ 5.3 µM) | 42 | 8.9
14 | CC(C)C[C@H](NC(=O)[C@H](C)NC(=O)[C@H](CCCCN)NC(=O)[C@H](CCCCN)NC(=O)c1ccc(-c2ccc(Cl)cc2)cc1)C(=O)N[C@@H](C)B(O)O [Compound 155] ({Benzoyl(4-(4-Cl-Ph))}-KKAL-boroAla) | – | – | 39 | 250
15 | CCCCc1ccc(-c2ccc(C(=O)N[C@@H](CN)C(=O)N[C@@H](CCCCN)C(=O)N[C@@H](C)C(=O)N[C@@H](CCCCN)C(=O)N[C@@H](C)B3O[C@@H]4C[C@@H]5C[C@@H](C5(C)C)[C@]4(C)O3)cc2)cc1 [Compound 184] ({Biphenylcarbonyl(4'-Bu)}-[Dap]KAK-{boroAla((+)-pinanediol)}) | 0.25 (≈ 0.286 µM) | 0.13 (≈ 0.149 µM) | 5.9 | 300
16 | CCCCc1ccc(-c2ccc(C(=O)N[C@@H](CCCN)C(=O)N[C@H](C(=O)N[C@@H](C)C(=O)N[C@@H](CCCCN)C(=O)N[C@@H](C)B(O)O)C(C)O)cc2)cc1 (stereo partly drawn) [Compound 156] ({Biphenylcarbonyl(4'-Bu)}-[Orn][Thr(3ξ)]AK-boroAla) | 0.31 (≈ 0.419 µM) | 0.5 (≈ 0.676 µM) | 5.5 | 97
17 | CCCCCCc1ccc(C(=O)N[C@H](CO)C(=O)N[C@H](C)C(=O)NCC(=O)N(C)[C@H](C(=O)N[C@@H](C)C(=O)N[C@@H](CC(C)C)C(=O)NC(C)C(=O)C(=O)NC)C(C)O)cc1 (stereo partly drawn) [Compound 114] ({Benzoyl(4-hexyl)}-[dS][dA]G[NMeThr(3ξ)]AL[ξ3Amino2oxobutanoyl]-NHMe) | – | – | – | 390
18 | CCCCCCc1ccc(C(=O)N[C@H](CO)C(=O)N[C@H](C)C(=O)NCC(=O)N(C)[C@H](C(=O)N[C@@H](C)C(=O)N[C@@H](CC(N)=O)C(=O)NC(C)C(=O)C(=O)NC)C(C)O)cc1 (stereo partly drawn) [Compound 113] ({Benzoyl(4-hexyl)}-[dS][dA]G[NMeThr(3ξ)]AN[ξ3Amino2oxobutanoyl]-NHMe) | – | – | – | 470
19 | CCCCc1ccc(-c2ccc(C(=O)N[C@@H](CCCCN)C(=O)N3CCC[C@H]3C(=O)N[C@@H](C)C(=O)N[C@@H](CCCCN)C(=O)N[C@@H]3CN(CC(=O)OC)C3=O)cc2)cc1 [Compound 258] ({Biphenylcarbonyl(4'-Bu)}-KPAK-X9) | >64 | 23 (≈ 28.1 µM) | – | 50000
20 | CCCCc1ccc(-c2ccc(C(=O)NCCC(=O)N[C@@H](CCCCN)C(=O)N[C@H](C(=O)N[C@@H](C)C(=O)N[C@H](C(=O)N[C@@H](C)B3OC4C[C@@H]5C[C@@H](C5(C)C)[C@]4(C)O3)C(C)(C)C)[C@@H](C)O)cc2)cc1 (stereo partly drawn) [Compound 211] ({Biphenylcarbonyl(4'-Bu)-βAla}-KTA[Tle]-X1) | 0.71 (≈ 0.752 µM) | 32 (≈ 33.9 µM) | – | 36
21 | CCCCc1ccc(-c2ccc(C(=O)N[C@@H](CCN)C(=O)N[C@H](C(=O)N[C@@H](C)C(=O)N[C@@H](CCCCN)C(=O)N[C@@H](C)B(O)O)[C@@H](C)O)cc2)cc1 [Compound 267] ({Biphenylcarbonyl(4'-Bu)}-[Dab]TAK-boroAla) | 0.13 (≈ 0.179 µM) | – | – | –
22 | CCCCc1ccc(-c2ccc(CN[C@@H](CCN)C(=O)N[C@H](C(=O)N[C@@H](C)C(=O)N[C@@H](CCCCN)C(=O)N[C@@H](C)B(O)O)[C@@H](C)O)cc2)cc1 [Compound 267] | – | – | 11 | 33
23 | CCCCCCc1ccc(C(=O)N[C@H](CO)C(=O)N[C@H](C)C(=O)NCC(=O)N(C)[C@H](C(=O)N[C@@H](C)C(=O)N[C@@H](CC(C)C)C(=O)NCB(O)O)C(C)O)cc1 (stereo partly drawn) [Compound 125] ({Benzoyl(4-hexyl)}-[dS][dA]G[NMeThr(3ξ)]AL-boroGly) | – | – | 730 | 55
